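Each compound was tested at five concentrations against cells in 96-well plates for 48 hours. TGI denotes the concentration required for complete inhibition of growth.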

Common to all, as to assay: DTP human tumour cell line panel, 48 h
Assay [1] has as its system CCRF-CEM leukemia.
Assay [2] deals with HCT-15 colon.
Assay [3] relates to K-562 leukemia.
The subject of assay [4] is MALME-3M melanoma.
In assay [5] the test system is NCI-H522 lung.
Assay [6] deals with OVCAR-8 ovarian.
Assay [7] relates to PC-3 prostate.
Assay [8] deals with SF-268 CNS.
Assay [9] concerns SK-MEL-2 melanoma.
Assay [10] concerns TK-10 renal.

For the compound `c1ccc(C2CC(=NC3CCCCC3)Nc3ccccc3N2)cc1` (centres undefined), the TGI was greater than 100 µM in [1]; greater than 100 µM in [2]; greater than 100 µM in [3]; 50.1 µM in assay [4]; 78.1 µM in [5]; greater than 100 µM in assay [6]. The TGI in assay [7], in assay [8], in assay [9] and in assay [10] was greater than 100 µM each time.

For `C[C@]12CC[C@@H]3c4ccc(O)cc4CC[C@H]3[C@@H]1C/C(=C\c1ccc(C#N)cc1)C2=O`, the TGI in assay [1] was greater than 100 µM; in assay [2], greater than 100 µM; in [3], greater than 100 µM; in assay [4] it was greater than 100 µM; in assay [5], 41.6 µM; in assay [6] it was greater than 100 µM. Moreover, the total growth inhibition concentration (TGI) in assay [7], in assay [8], in assay [9] and in assay [10] was greater than 100 µM in each case.

With `O=C1CS(=O)(=O)C(c2cccc(Oc3ccccc3)c2)N1c1cc(Cl)ccc1Cl` (centres undefined), the TGI in assay [1] is greater than 100 µM; in [2], 69.9 µM; in [3], greater than 100 µM; in assay [4] it was greater than 100 µM; in assay [5], 56 µM; in [6], 43.9 µM. For the same compound, the concentration for total growth inhibition (TGI) was 32 µM in assay [7], 52.8 µM in [8], 30.2 µM in [9] and 90.6 µM in assay [10].

Consider `COc1cc(C(O)c2ccc3c(c2)OCO3)cc(OC)c1OC` (centres undefined), for which the TGI in assay [1], in assay [2], in [3], in assay [4], in [5] and in assay [6] was greater than 100 µM in each case. Moreover, the concentration for total growth inhibition (TGI) in [7], in assay [8], in [9] and in [10] was greater than 100 µM in each case.

For the compound `CN(C)c1ccc(Cc2cc3c(O)ccc(O)c3cc(Cc3ccc(N(C)C)cc3)c2=O)cc1`, the TGI in [1] was found to be 7.36 µM; in assay [2], 58 µM; in assay [3], 10.6 µM; in [4] it was 45.4 µM; in [5], 32.5 µM; in assay [6] it was 77.4 µM. The TGI in [7] is 32.7 µM; in assay [8], greater than 77.5 µM; in assay [9], greater than 68.9 µM; in [10] it was 33.6 µM.

As for `COc1ccc(N2C(=O)C3c4[nH]c5ccccc5c4C4CCCCCCCCCC4C3C2=O)cc1` (centres undefined), the TGI in assay [1], in [2], in assay [3], in [4], in [5] and in [6] was greater than 10 µM in each case. In addition, the TGI in assay [7], in assay [8], in [9] and in assay [10] was greater than 10 µM in each case.

Turning to `CCNc1ncnc2sc(SCc3ccccc3)nc12`, the TGI in assay [1], in assay [2], in assay [3], in assay [4], in assay [5] and in assay [6] was greater than 100 µM throughout. Besides, the total growth inhibition concentration (TGI) in assay [7], in [8], in assay [9] and in assay [10] was greater than 100 µM each time.

Turning to `Cc1c(-c2ccccc2)[nH]n(C2=NCCN2)c1=O`, the TGI in [1], in assay [2], in assay [3], in [4], in assay [5] and in assay [6] was greater than 100 µM throughout. In addition, the concentration for total growth inhibition (TGI) in assay [7], in [8], in assay [9] and in assay [10] was greater than 100 µM throughout.

On to `COc1ccc(Oc2cnn(C(Br)(Br)C(C)=O)c(=O)c2Br)cc1`, for which the TGI in [1] is 4.57 µM; in assay [2], 39.8 µM; in [3], 16.9 µM; in [4], 32.2 µM; in [5] it was 14.7 µM; in [6], 27 µM. The total growth inhibition concentration (TGI) was 27.4 µM in assay [7], 29 µM in assay [8], 31.4 µM in assay [9] and 26.3 µM in assay [10].

For `O=C1C=CC(=O)C(CNc2ccc(C(=O)OCc3ccccc3)cc2)=C1`, the TGI is 9.1 µM in [2]; greater than 100 µM in assay [3]; 7.22 µM in assay [4]; 2.87 µM in assay [5]; 16.8 µM in [6]; 13.4 µM in assay [7]. Besides, the TGI in assay [8] was determined as 21.8 µM; in assay [9] it was 30 µM; in assay [10], 14.9 µM.

In the case of `S=C1NC2=C(CSC/C2=C\c2ccccc2)C(c2ccccc2)N1` (centres undefined), the TGI in [1] was greater than 100 µM; in assay [2], greater than 100 µM; in assay [3] it was greater than 100 µM; in assay [4], 99.4 µM; in assay [5], greater than 100 µM; in [6] it was greater than 100 µM. Besides, the TGI in assay [7], in [8], in assay [9] and in [10] was greater than 100 µM throughout.

As to `O=[N+]([O-])c1cccc2c(N=Nc3ccc4ccccc4c3O)c(O)cc(S(=O)(=O)O)c12`, the TGI in assay [1] is 66.7 µM; in [2], greater than 100 µM; in [3] it was greater than 100 µM; in assay [4] it was 80.6 µM; in assay [5], greater than 100 µM; in [6], greater than 100 µM. The TGI in assay [7], in [8], in assay [9] and in [10] was greater than 100 µM in each case.

Consider `CCOC(=O)c1sc2ncnc(N)c2c1C`, for which the total growth inhibition concentration (TGI) in [1], in assay [2], in assay [3], in assay [4], in assay [5] and in [6] was greater than 100 µM in each case. Besides, the TGI in assay [7], in [8], in assay [9] and in assay [10] was greater than 100 µM each time.

As to `Cc1cc(O)c(-c2cc(O)c(C)cc2O)cc1O`, the TGI is 3.8 µM in assay [1]; greater than 51.1 µM in assay [2]; 4.65 µM in assay [3]; 25.5 µM in assay [4]; 12.2 µM in assay [5]; 16.7 µM in [6]. Also, the TGI came out at 27.6 µM in assay [7], 37.8 µM in [8], 33 µM in assay [9] and 16 µM in assay [10].

Consider `CC(=O)n1nc(-c2ccccc2)n(/N=C/c2ccc([N+](=O)[O-])o2)c1=O`, for which the concentration for total growth inhibition (TGI) turned out to be 6.55 µM in [1]; 15.4 µM in [2]; 37 µM in assay [3]; 16.5 µM in assay [4]; 7.15 µM in assay [5]; 33.3 µM in [6]. In addition, the TGI turned out to be 30.9 µM in assay [7], 14.1 µM in assay [8], 11.5 µM in [9] and 25.5 µM in assay [10].

With `O=[N+]([O-])c1cc(Cl)ccc1Sc1ccccc1`, the TGI in assay [1], in assay [2], in [3], in assay [4], in [5] and in assay [6] was greater than 100 µM in each case. Moreover, the TGI in [7], in assay [8], in assay [9] and in [10] was greater than 100 µM throughout.

Turning to `C[C@H]1[C@H](C)CC[C@]2(C(=O)OC3OC(CO)C(O)C(O)C3O)CC[C@]3(C)C(=CC[C@@H]4[C@@]5(C)C[C@H]6OC(=O)c7cc(O)c(O)c(O)c7-c7c(cc(O)c(O)c7O)C(=O)O[C@@H]6C(CO)(CO)[C@@H]5CC[C@]43C)[C@H]12` (some centres undefined), the total growth inhibition concentration (TGI) in assay [1] is greater than 92.3 µM; in assay [2] it was greater than 100 µM; in [3] it was greater than 100 µM; in [4], greater than 100 µM; in [5] it was 38.6 µM; in assay [6], greater than 100 µM. Also, the TGI in assay [7], in [8], in assay [9] and in [10] was greater than 100 µM each time.

Turning to `Clc1nncc2sc(-c3ccccc3)nc12`, the TGI in assay [1] was greater than 94.4 µM; in assay [2], 36.4 µM; in [3] it was greater than 100 µM; in [4], 70.6 µM; in assay [5], 44.8 µM; in [6], 59.3 µM. Besides, the TGI in [7] is greater than 58.2 µM; in assay [8], 49 µM; in [9], 47.4 µM; in [10] it was greater than 100 µM.

`O=S1SC(=S)C2C=CC=CC21` (centres undefined): the concentration for total growth inhibition (TGI) was 39 µM in assay [1]; greater than 100 µM in [2]; greater than 100 µM in assay [3]; greater than 100 µM in assay [4]; greater than 100 µM in assay [5]; greater than 100 µM in [6]. Also, the TGI in assay [7], in [8], in [9] and in assay [10] was greater than 100 µM each time.

As for `CCOC(=O)NC(Nc1c(F)c(F)c(F)c(F)c1F)(C(F)(F)F)C(F)(F)F`, the TGI in assay [1], in assay [2], in assay [3], in assay [4], in assay [5] and in [6] was greater than 100 µM each time. The TGI in assay [7], in assay [8], in [9] and in assay [10] was greater than 100 µM in each case.

Take `CC(C)N1CN(c2ccccc2)C2(CCN(CCCC(=O)c3ccc(F)cc3)CC2)C1=O`: the concentration for total growth inhibition (TGI) in assay [1] is 9.61 µM; in assay [2], 40.5 µM; in assay [3], 69.7 µM; in [4] it was 29.6 µM; in assay [5], 49.8 µM; in assay [6], greater than 82 µM. Also, the TGI is greater than 71 µM in assay [7], greater than 63.4 µM in assay [8], 28.3 µM in [9] and greater than 49.5 µM in assay [10].

As to `C[C@H]1OC(=O)[C@@H]2N=NN(Cc3ccccc3)[C@H]12`, the total growth inhibition concentration (TGI) in assay [2], in assay [3], in [4], in assay [5], in assay [6] and in [7] was greater than 100 µM throughout. The TGI in [8], in [9] and in assay [10] was greater than 100 µM each time.

For the compound `O=c1c2ccccc2sc2ccccc12`, the TGI in assay [1], in [2], in [3], in assay [4], in assay [5] and in [6] was greater than 100 µM each time. Further, the TGI in [7], in assay [8], in assay [9] and in [10] was greater than 100 µM throughout.

For `O=C1c2cccc(O)c2C(=O)c2c(OC3OC(CO)C(O)C(O)C3O)cccc21` (centres undefined), the total growth inhibition concentration (TGI) in [2] was 94.9 µM; in assay [3], greater than 100 µM; in [4], 20.9 µM; in assay [5], 40.5 µM; in [6] it was greater than 100 µM; in assay [7] it was 82 µM. The TGI in [8] is 67.6 µM; in assay [9], greater than 100 µM; in [10], greater than 100 µM.

With `CCOC(=O)c1ccc(Nc2nc3ccc(C(F)(F)F)cc3nc2C(=O)OCC)cc1`, the TGI in [1], in assay [2], in assay [3], in assay [4], in assay [5] and in assay [6] was greater than 100 µM throughout. Moreover, the TGI in assay [7], in assay [8] and in [10] was greater than 100 µM each time.

Take `COc1ccc(C2c3cc4c(cc3OC(NCCO)C2C)OCO4)cc1` (centres undefined): the concentration for total growth inhibition (TGI) in assay [1] is 52.4 µM; in assay [2] it was 54.4 µM; in assay [3], 58.8 µM; in [4] it was 47.7 µM; in assay [5] it was 47.8 µM; in [7], 66.3 µM. Besides, the TGI came out at 72.6 µM in assay [8], 50.8 µM in [9] and 66.1 µM in [10].

As for `CN(C)c1cccc2c1C(=O)C=CC21c2ccc(N(C)C)c3c(N(C)C)ccc(c23)C(c2ccccc2)C1c1ccccc1` (centres undefined), the TGI in [1] is 37.7 µM; in assay [2], 66.8 µM; in assay [3], greater than 100 µM; in assay [4], 35.6 µM; in [5] it was 47.7 µM; in [6], 27.3 µM. In addition, the figures for the TGI in assay [7], in [8] and in assay [10] were 30.2 µM, 53.9 µM and 25.5 µM, respectively.

The term TGI denotes the concentration giving total growth inhibition. High values mean lower sensitivity of the cells, low ones greater sensitivity of the cells.
